Measured values as given in a melting point compilation (Tetko et al.; mined from patent text by program, amines drawn as free bases though some values may be those of a salt).

Compound | melting point [°C]
NC(=O)CNC(=O)c1cccc(-c2ccc3c(c2)C(Oc2ccc(Cl)cc2Cl)CC3)c1 (centres undefined) | 180 to 181
O=C(O)CCc1cccc2c1C[C@@H](CCCCc1ccccc1)O2 | 110 to 111
O=C(NC1(C(=O)O)CC1)C(CS)Cc1ccccc1 (centres undefined) | 222 to 224
COC(=O)c1ccc2c(c1)c(Cc1ccc(C(=O)Cl)cc1OC)cn2C | 147 to 149
CCCCNC(=O)NS(=O)(=O)c1c(C(=O)OCC)cnn1-c1ccccn1 | 180 to 181
CNC(=O)c1ccccc1Nc1nc(Nc2ccc3c(c2)CCCC(=O)N3C)ncc1Br | 238 to 240
CCOc1c(C(O)CCc2ccn(C)c2)c(OCCN2CCCCC2)c(OC)c2occc12 (centres undefined) | 88
CCOC(=O)c1cc(=O)c2cc3c(=O)cc(C(=O)OCC)n(CC)c3cc2o1 | 193 to 194
CCN(CC)C(=O)c1cc([N+](=O)[O-])cnc1CBr | 62 to 64
CCOc1ccc(C2=NNC(=O)[C@H]3CC=CC[C@@H]23)cc1OCC (relative stereo) | 145 to 147
O=C1CCC(N2Cc3cc(CNC(=O)Nc4ccc(SC(F)(F)F)cc4)ccc3C2=O)C(=O)N1 (centres undefined) | 218 to 220
Cc1ccccc1C(=O)Nc1ccc(C(=O)Cl)cc1 | 135 to 141
CC(C)(C)c1cc(CCC(N)=O)cc(-n2nc3ccc(S(=O)(=O)c4ccccc4)cc3n2)c1O | 144 to 145
O=C1N=C(N2CCOCC2)SC1c1cccc(-c2ccc(O)c(-c3ccccc3)c2)n1 (centres undefined) | 292 to 295
CCSC(C)(C)C(=O)C(C(=O)Nc1cc(NC(=O)CCCOc2ccc(C(C)(C)CC)cc2C(C)(C)CC)ccc1OC)N1C(=O)OC(C)(C)C1=O (centres undefined) | 155 to 156
CCCn1cncc1-c1ccc(O)cc1 | 160
CC(=O)Oc1c(Oc2ccccc2)c(Oc2ccccc2)c(OC(C)=O)c2ccccc12 | 173 to 174
CSCc1cnc(Cl)nc1 | 56 to 57
N#Cc1ccc(-c2sc(N3C(=O)c4ccccc4C3=O)c(C(=O)c3ccc(Cl)cc3)c2CBr)cc1 | 211 to 214
Oc1ccc(-c2cc3cc(Br)cc(Br)c3o2)cc1 | 203 to 205
Cc1cc(SC(C)C)c(NC(=O)CCCCCCSc2nc3c(C)c(Cl)cc(C(C)C)c3o2)c(SC(C)C)n1 | 91 to 93
Nc1coc2ccc(Cl)cc2c1=O | 184 to 186
CCCCCCCCCCCCCCCCCCNCC(O)CO (centres undefined) | 81 to 83
CNc1cc(NC)cc(C(=O)CS(C)(=O)=O)c1 | 144 to 146
CSc1ccc(C2=C(c3ccc(C)cc3)CCC2)cc1 | 64.5 to 66.5

Compound | melting point [°C]
CC(C)(C)OC(=O)N1Cc2ccccc2CN1CC(O)C(Cc1ccccc1)NC(=O)OCc1ccccc1 (centres undefined) | 68 to 71
COc1ccc(CNc2nc(N3CCC[C@H]3CO)ncc2C(=O)NCc2ncccn2)cc1Cl | 160 to 163
O=C1Nc2cc(Br)ccc2Oc2cscc21 | 245 to 249
COc1ccc(CCOC(c2ccccc2)(c2ccccc2)C(O)C(=O)O)cc1OC (centres undefined) | 133 to 135
Nc1cccc(C(=O)N2N=C(C(F)(F)F)CC2(O)c2cc(F)c(Cl)cc2F)c1 (centres undefined) | 123 to 124
CCC1C(C)=NN=C(c2ccc(OC)cc2)c2cc(OC)c(OC)cc21 (centres undefined) | 157 to 159
Cn1c(CCN2CCN(Cc3ccccc3)CC2)nc2cc(Br)c3ccccc3c21 | 155 to 157
Cc1cn(-c2cccc(C(=O)CC(=O)Nc3cc(-c4ccc(F)cc4)ccc3NC(=O)OC(C)(C)C)c2)cn1 | 124
CCOc1ccc(-c2nnc(C#N)o2)cc1 | 110
CC(C)(C)OC(=O)N1CCC2(CC1)NC(c1nc(-c3ccccc3)c[nH]1)Cc1c2[nH]c2ccccc12 (centres undefined) | 118 to 120
Clc1ccc(-n2ncnc2-c2cnccn2)cc1 | 129 to 131
COC(=O)c1nc(Cl)nc(N)c1Cl | 164 to 166
CNCc1cc(Oc2ccc3c(C(=O)Nc4cccc(C(F)(F)F)c4)cccc3c2)ncn1 | 141 to 143
CCc1c(C(=O)c2cc(C)cc(C)c2)n(CC=C(C)C)c(=O)[nH]c1=O | 255 to 260
CN1CCCCC1COC(=O)c1c[nH]c2ccccc12 (centres undefined) | 168 to 170
C=CCc1nc(Cl)nc(Cl)c1OC | 61 to 62
COc1ccc(OCC2NCCS2)cc1 (centres undefined) | 54 to 55
Nc1ccc(C(O)C(COc2ccccc2)N2CCC(Cc3ccccc3)CC2)cc1 (centres undefined) | 146 to 147
CCOC(=O)c1cnn(-c2ccc(OCC(C)C)c(C#N)c2)c1Cl | 87
Cc1c(F)c(F)c(F)c2c1c(=O)c(C(=O)O)cn2-c1cccs1 | 221 to 222
CCCCCCCCCCCc1cc2cc(C(=O)OCC)ccc2[nH]1 | 76 to 77
COc1ccc(CS(=O)(=O)c2cc3cc(Br)ccc3oc2=O)cc1 | 231 to 232
CCOC(=O)Cc1c(C(=O)O)c(Br)c(C(=O)c2ccc(Cl)cc2)n1C | 183 to 185
CC(C)c1cccc(OCc2cc(Br)ccc2C(=O)O)c1 | 103 to 122
COc1cc(Nc2c(C#N)cnc3cc(-c4ccc(CN5CCC[C@@H]5C(N)=O)o4)ccc23)c(Cl)cc1Cl | 121 to 126

Compound | melting point [°C]
CC(C)(C)c1ccc(COCCCCCCNC(=O)c2cc(-c3cccc(C(F)(F)F)c3)c(OCC(=O)O)c(-c3cccc(C(F)(F)F)c3)c2)cc1 | 156 to 158
CCc1cccc2c3c([nH]c12)[C@@]1(CC(=O)O)CC[C@H]1CC3 (relative stereo) | 170 to 171
COc1ccc(N2CCOCC2)c2sc(C(=O)NCc3ccccc3)nc12 | 156 to 158
Nc1cccc(Oc2ccc3c(c2)OCC(=O)N3)c1 | 209 to 210
Cc1cc(Br)cnc1CCCCNc1ncc(Cc2ccc(Cl)cc2)c(=O)[nH]1 | 149 to 150
CCCCCCCOc1ccc(-c2ccc(OCc3ccccc3)c(F)c2)cc1F | 98.7 to 100
O=C(O)c1cccc(OCc2cc(Cl)cc(Cl)c2)c1OCc1cc(Cl)cc(Cl)c1 | 150 to 151
Cc1c(F)c(Br)cc(Br)c1C(=O)O | 144 to 146
CCCc1nn(C)c2c(NCc3ccc(OC)c(Cl)c3)nc(CCC(=O)O)nc12 | 178
COc1ccc([C@H]2CCc3ccccc3[C@@H]2C#N)cc1 (racemic) | 126 to 131
CCCCCC(CCn1ccnc1)Sc1ccc(C(C)(C)C)cc1 (centres undefined) | 192 to 193
c1ccc(N=c2sc3ccccc3s2)cc1 | 67 to 68
Cc1c(C)n(-c2ccccc2)c2ncn(C)c(=O)c12 | 207 to 208
CCOC(=O)c1oc(SC)c2c1CCc1sc(-c3ccccc3)nc1-2 | 170 to 171
Nc1cc([N+](=O)[O-])cc(CCO)c1N | 172
Cc1cc(Oc2ccc(NC(=O)N3CCc4ccccc4CC3)cn2)ccc1Cl | 171 to 173
C=CCn1ccc(=O)[nH]c1=O | 108 to 109
O=C(NCC12CC3CC(CC(C3)C1)C2)c1c(Cl)ccc2nc(N3CCC[C@@H]3C(=O)O)ccc12 | 157 to 160
Cc1ccc(NC(=O)c2ccsc2)cc1-c1nc(N(C)C)nc2c1CNC(=O)N2c1c(F)cccc1F | 214 to 215
O=C1c2cc([N+](=O)[O-])ccc2CC2CCCCN12 (centres undefined) | 137 to 142
O=C(O)c1ccc(Br)cc1COc1ccc2c(c1)OCO2 | 167 to 177
CCCCOc1ccc(Nc2cc(Nc3ccc4c(c3)OCCO4)ncc2F)cc1 | 150 to 151
O=C(NCCNS(=O)(=O)c1ccc(Oc2ccccc2)cc1)P(=O)(O)O | 166 to 169
O=S1(=O)CCN2CCCC(c3ccc(Oc4ccc(Cl)cc4)cc3)C2=N1 (centres undefined) | 215 to 216
NS(=O)(=O)c1sc(Cl)cc1C(=O)CBr | 147 to 148

Compound | melting point [°C]
Cn1ccnc1Sc1c(Cl)cccc1[N+](=O)[O-] | 102 to 104
CN(C)C(N)=Nc1cc(F)ccc1N1CCOCC1 | 137 to 138
Cc1cc(C#Cc2ccccc2)nc(Oc2cc(C(F)(F)F)nn2C)c1 | 56
COC(=O)C1(F)C(=O)N(C)C(=O)NC1O (centres undefined) | 160 to 161
O=C(C(=O)N1CCC(Oc2ccc(F)cc2)CC1)c1c[nH]c2ccccc12 | 205 to 207
CCOC(=O)C1CNc2cc(-c3ccccc3)ccc2O1 (centres undefined) | 141 to 145
Cc1ccc(C(=O)c2ccc(CC#N)n2C)c(Cl)c1 | 116 to 118
O=C(Nc1ccccc1Oc1ccccc1-c1nnn[nH]1)c1ccc(OCc2ccc3ccccc3n2)cc1 | 224 to 226
Cc1cc2ncc(Nc3cccc(Cl)c3)nc2cc1C | 175
CCCc1c(OCCCCCOc2ccc3c(c2CCC)OC(C(=O)O)CC3O)ccc(C(C)=O)c1O (centres undefined) | 95.5 to 97.5
COc1nc2ccccc2nc1NC(=S)N1CCN(c2ccccc2SC)CC1 | 148 to 150
CC(=O)OCC1OC(n2cnc(C(N)=O)c2Br)C(OC(C)=O)C1OC(C)=O (centres undefined) | 133 to 135
COc1ccc(-c2csc3ccc([N+](=O)[O-])c(C(=O)N4CCOCC4)c23)cc1OC | 144
CNC(=O)COc1cc(C)ccc1O | 163 to 165
CCOc1ccc(C(=O)CCC(=O)OC)cc1OCC | 84 to 85
c1ccc(COc2ccc(CNn3cncn3)cc2)cc1 | 123 to 124
COCCc1sc2ncnc(N)c2c1-c1ccc(N)cc1 | 144 to 146
COc1ccc(-c2[nH]nc3c2C(=O)c2c(NC(=O)Cc4ccc(N)cc4)cccc2-3)cc1 | 283
CC1Oc2c(Cc3ccccc3)cc(CN3CCN(c4ccc(C(=O)NC5CC5)cc4)CC3)cc2NC1=O (centres undefined) | 192 to 203
CCCCCc1ocnc1C(=O)O | 84 to 85
CCCc1nc2ccc(C(=O)NCc3ccc(N(C)C)cc3)cc2n1Cc1ccccc1Cl | 155 to 156
O=C(c1nc(-c2ccccc2)nc2ccccc12)N1CCC(O)CC1 | 209
CCOC(=O)C1=C(C)N(C)C(C)=C(C(=O)OC)C1c1cc([N+](=O)[O-])ccc1Cl (centres undefined) | 164
COCCn1c(C)c(C2(c3ccc(N(C)C)cc3C)OC(=O)c3ccccc32)c2ccccc21 (centres undefined) | 205 to 207
